Assay results from patent publication US11014884B2 (Global Blood Therapeutics, Inc., priority 2018, dated 2021).

Columns and labels:
Human CO-HbS = target: T1, Human CO-HbS (Homo sapiens, UniProt P69905); assay: Crystallography of CO-liganded HbS with compound; conditions: CO-HbS 0.8 mM, compound 1 mM
T1 construct: Purified HbS was prepared from blood using a combination of gel filtration and anion exchange chromatography; from tissue; host or cells: blood
Protocol: Purified HbS was prepared from blood using a combination of gel filtration and anion exchange chromatography. Following preparation, the purified HbS solution was concentrated to 1 mM in a volume of 1 mL using a Vivaspin 20 concentrator (GE healthcare) via centrifugation at room temperature in an Eppendorf 5810 R centrifuge. The concentrated HbS solution was then buffer exchanged into potassium phosphate buffer by mixing 1 mL of concentrated HbS solution with 20 mL of 1.8 M potassium phosphate buffer, pH 7.4 and re-concentrating back to 1 mL using a Vivaspin 20. This process was repeated twice and aliquots of the resulting HbS solution were flash frozen using liquid nitrogen and stored at −80° C. To prepare HbS-CO, purified HbS was first saturated with CO for five hours before it was buffer exchanged into 20 mM Hepes buffer, pH 7.4, and concentrated to 3 mM.
Human CO-HbS was crystallized using sitting drop vapor diffusion method. Freshly prepared CO-HbS at 0.8 mM and buffered with 20 mM HEPES pH 7.4 was mixed with compounds (specifically, Compound 1 and Compound 2) at a final concentration of 1 mM. […] The appearance of hemoglobin crystals was monitored visually and microscopically every 48-72 hours after beginning of the experiments. […]

hemoglobin = target: T2, hemoglobin (Homo sapiens, UniProt P69905); assay: Whole blood assay: oxygen equilibrium curves (Hemox Analyzer), change in p50; assay type: cell-based; conditions: whole blood 20% Hct (1 mM Hb), compound 1 mM, equimolar to hemoglobin, 1 h at 37° C.
T2 construct: from tissue; host or cells: whole blood (red blood cells)
T2 sequence (P69905 2-142 limits assumed): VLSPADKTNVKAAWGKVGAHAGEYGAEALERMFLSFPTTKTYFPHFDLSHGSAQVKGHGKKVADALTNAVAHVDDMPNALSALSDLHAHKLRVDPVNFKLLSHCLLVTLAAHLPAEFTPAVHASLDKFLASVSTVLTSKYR
T2 sequence (P68871 2-147 partner limits assumed): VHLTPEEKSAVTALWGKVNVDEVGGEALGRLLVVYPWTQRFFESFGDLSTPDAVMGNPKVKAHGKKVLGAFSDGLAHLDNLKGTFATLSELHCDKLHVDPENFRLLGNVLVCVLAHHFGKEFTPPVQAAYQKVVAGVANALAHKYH
Protocol: Oxygen equilibrium curves (OECs) were collected using a TCS Hemox Analyzer (TCS Scientific Company, New Hope, Pa., USA) to measure changes in the binding affinity of 02 to Hb. Whole blood was incubated for 1 h at 37° C. with the indicated compounds in an equimolar ratio of hemoglobin to compound and diluted into TES (2-[[1,3-dihydroxy-2-(hydroxymethyl)propan-2-yl]amino]ethanesulfonic acid)/saline buffer prior to measurements. For example, for whole blood at 20% hematocrit [Hct], which corresponds to 1 mM Hb, a compound concentration of 1 mM was used (for example, for compounds 1-53), and the incubated sample diluted 50- to 100-fold. The concentration for compound 54 was 1.7 mM and in equimolar ratio to hemoglobin. The diluted samples were then oxygenated with compressed air within the Hemox Analyzer, and the OECs were collected during deoxygenation as previously described (Guarnone et al., Haematologica, 1995, 80, 426-430). p50 (partial pressure of 02 at which Hb is 50% saturated with 02) values were obtained using a non-linear regression analysis. Percentage change in p50 [Δp50(%)] was calculated as follows: Δp50(%)=[(p50 of control)−p50 with compound)/p50 control]×100.

[1] = Pharmacokinetics in rats following 10 mg/kg oral administration; assay type: in vivo; conditions: Sprague-Dawley, rat, PO 10 mg/kg
Protocol: The pharmacokinetic (PK) profile of Compound 2 was characterized in Sprague-Dawley rats following oral administration of 10 mg/kg. Blood and plasma samples were serially collected from each animal up to 240 h post-dose and analyzed for their concentrations using LC/MS. The analytical range was 100 to 100,000 ng/ml for both plasma and blood samples. Blood and plasma concentrations of Compound 2 were analyzed by non-compartmental analysis using Phoenix WinNonlin software (version 6-4; Pharsight Inc., Cary, N.C., USA) to obtain pharmacokinetic parameters, including half-life (T½) and area under the curve (AUC). AUClast refers to the area under the curve calculated from t=0 to the last detectable time-point. Blood to plasma concentration ratio was calculated from a ratio of AUClast in blood divided by AUClast in plasma.
Blood pharmacokinetic parameters in rat were determined in individual animals and reported as mean.

T1 sequence (P69905 2-142 limits assumed): as the sequence (P69905 2-142 limits assumed) above

Structure (SMILES)	binding sites on hemoglobin (crystal structure) (Human CO-HbS)	Delta-p50 (%) (hemoglobin)	blood plasma ratio ([1]; blood and plasma, AUClast in blood divided by AUClast in plasma)	AUC(0-t) ([1]; whole blood, blood, 0.5% MC, mean of N=3) [µg·h/mL]	half-life ([1]; whole blood, blood, 0.5% MC, mean of N=3, read-out: T½ (converted)) [h]
O=Cc1c(O)cccc1OC[C@@H]1CCCCN1C(=O)c1cccc(O)c1C=O [Compound 1, 2-[(2S)-2-[(2-formyl-3-hydroxyphenoxy)methyl]piperidine-1-carbonyl]-6-hydroxybenzaldehyde]	two distinct areas of hemoglobin	75.8	–	–	–
O=Cc1ccccc1C(=O)N1CCCC[C@H]1COc1cccc(O)c1C=O [Compound 2, 2-{[(2S)-1-(2-formylbenzoyl)piperidin-2-yl]methoxy}-6-hydroxybenzaldehyde]	two distinct areas of hemoglobin	78.3	937	239	187
